The text below walks through data of article PMC6380545, “Myoinhibitory peptide signaling modulates aversive gustatory learning in Caenorhabditis elegans” (PLoS Genetics, 2019).

Assay [1] concerns C. elegans. As to the kind of experiment: Salt avoidance learning (taste associative learning, 6 h conditioning with NaCl without food). Format: in vivo. The following applies: wild-type, blocker in conditioning plates, cycloheximide 300 μg/mL, actinomycin D 50 μg/mL, 100 mM NaCl without food. The text has this: We next explored the behavior of sprr-2 mutants in a second established type of gustatory associative learning that depends on food availability and external salt concentration, generally referred to as taste associative learning. […] In contrast, they are averted by NaCl concentrations at which they were starved, a behavior that is called salt avoidance learning (Fig 5A, see Methods). To test taste associative learning of sprr-2 mutants, we fed or starved animals, respectively, for six hours on conditioning plates with 25 mM NaCl (low salt) or 100 mM NaCl (high salt). […] This salt avoidance learning defect could be rescued by reintroducing wild-type copies of sprr-2 under control of its endogenous promoter (Fig 5C). […]
(A) Overview of taste associative learning assays. […] The CI is calculated from the number of worms that migrated toward the lower and upper parts of the gradient. […]
Worms were washed off the cultivation plates with chemotaxis buffer (25 mM KH2PO4/K2HPO4 pH 6.6, 1 mM MgSO4, 1 mM CaCl2, 50 mM NaCl) and transferred to unseeded (salt avoidance learning) or seeded NGM conditioning plates with 100 mM NaCl. […] 30 to 150 worms were placed at the origin and allowed to move freely for 45 minutes after which the CI was calculated as N(higher)—N(lower) / N(all)—N(origin) where N(higher) or N(lower) is the number of animals within a 2-cm radius from the centre of the blocks. […]

Assay [2] has as its system C. elegans. Nature of the assay: Taste associative learning, 6 h conditioning with NaCl in the presence of food. Format: in vivo. The following applies: for CI: food (+): 6 hours conditioning on NGM plates with 100 mM NaCl in the presence of bacterial food, with the drug, gradient chemotaxis assay, each row is one single assay (replicate), Figure S5A; for learning behavior after conditioning with 100 mM NaCl in the presence of food: wild-type, blocker in conditioning plates, cycloheximide 300 μg/mL, actinomycin D 50 μg/mL, n ≥ 8. How it is done: (A) Overview of taste associative learning assays. Synchronized young adult C. elegans are conditioned for six hours on NaCl-containing plates with or without bacterial food. Salt chemotaxis behavior of worms is then tested on NaCl concentration gradients. The CI is calculated from the number of worms that migrated toward the lower and upper parts of the gradient. Worms chemotax to the salt concentrations at which they were fed, but avoid salt concentrations at which they were starved. […] (C) Expression of sprr-2 under its promoter sequence [sprr-2p::sprr-2] rescues the salt avoidance learning defect of sprr-2 mutants. (D) Expression of mip-1 under control of its endogenous promoter sequence [mip-1p::mip-1] rescues the salt avoidance learning defect of mip-1 mutants. (E) A mip-1; sprr-2 double mutant has no additive learning defect. (F) Blocking translation (cycloheximide) or transcription (actinomycin D) during conditioning impairs salt avoidance learning in wild-type animals. (G) Salt avoidance learning of mutants for transcription factors and regulators linked to learning and memory. […] For (B-H), boxplots indicate 25th (lower boundary), 50th (line), and 75th (upper boundary) percentiles. Whiskers show minimum and maximum values. Individual CIs, blue dots. Outliers, black dots. Statistical comparisons by one-way ANOVA and Tukey post-hoc test (n ≥ 6). *p<0.05; **p<0.005; ***p<0.001; n.s., not significant.
Worms were washed off the cultivation plates with chemotaxis buffer (25 mM KH2PO4/K2HPO4 pH 6.6, 1 mM MgSO4, 1 mM CaCl2, 50 mM NaCl) and transferred to unseeded (salt avoidance learning) or seeded NGM conditioning plates with 100 mM NaCl. After 6 hours, animals were washed off and rinsed once with chemotaxis buffer before testing chemotaxis towards NaCl on salt concentration gradients. Salt concentration gradients consisted of a thin layer of 50 mM NaCl 2% agar solution in chemotaxis buffer (background agar, 10 mL was poured into 8.5 cm diameter plates). Additionally, 2% agar in chemotaxis buffer solutions supplemented without 0 mM (lower side) or with 150 mM NaCl (higher side) were prepared by pouring 10 mL agar solution into 35 mm diameter plates. Cylindrical blocks with the diameter of a 15 mL falcon tube were excised from either solution and applied on the background agar 3 cm off centre in opposite directions. Salt concentration gradients were subsequently placed at 20°C for 18 hours before removing the agar chunks prior to use. 30 to 150 worms were placed at the origin and allowed to move freely for 45 minutes after which the CI was calculated as N(higher)—N(lower) / N(all)—N(origin) where N(higher) or N(lower) is the number of animals within a 2-cm radius from the centre of the blocks. Animals within a 1-cm radius from the origin were excluded from the assay. […]

The target of another assay is T1, SPRR-2 (Caenorhabditis elegans, UniProt Q93704).
T1 construct: host or cells: CHO-WTA11 cells (CHO stably expressing aequorin and Galpha16), transiently transfected with sprr-2/pcDNA3.1
T1 sequence (Q93704 1-451): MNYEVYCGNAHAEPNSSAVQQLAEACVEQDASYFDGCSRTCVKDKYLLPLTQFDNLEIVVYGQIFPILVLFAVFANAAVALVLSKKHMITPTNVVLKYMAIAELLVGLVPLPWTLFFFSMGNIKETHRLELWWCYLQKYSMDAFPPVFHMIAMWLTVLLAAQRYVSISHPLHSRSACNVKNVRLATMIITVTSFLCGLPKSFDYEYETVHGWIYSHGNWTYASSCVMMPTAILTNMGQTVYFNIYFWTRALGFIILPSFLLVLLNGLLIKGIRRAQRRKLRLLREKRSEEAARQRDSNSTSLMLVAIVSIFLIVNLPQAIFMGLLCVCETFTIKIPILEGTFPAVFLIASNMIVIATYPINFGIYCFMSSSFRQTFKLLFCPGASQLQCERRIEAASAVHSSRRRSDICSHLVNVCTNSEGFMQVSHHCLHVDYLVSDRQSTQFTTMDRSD
As to the kind of experiment: Ca2+ luminescence (aequorin) GPCR activation assay, CHO cells expressing SPRR-2. Format: cell-based, C. elegans. The following applies: CHO cells expressing SPRR-2, Gα16 and aequorin; 0.1 nM to 100 μM; n ≥ 4; read-out: EC50 values (95% CI) for activation of SPRR-2. The text has this: Fig 2 MIP-1 neuropeptides activate the MIP receptor ortholog SPRR-2. (A) Ca^2+ luminescence assay for measuring GPCR activation. SPRR-2 is expressed in CHO cells that stably co-express the promiscuous Gα16 protein, which couples the receptor’s activation to the Ca^2+ pathway. Intracellular Ca^2+ levels are monitored by the luminescent Ca^2+ indicator aequorin. (B) Domain structure of the C. elegans NLP-38 peptide precursor, henceforward named MIP-1. Gene models predict that the mip-1 gene encodes two protein isoforms (Wormbase WS261), MIP-1A and MIP-1B, which yield five putative MIP-1 peptides. Predicted proprotein convertase sites are indicated in red. Residues belonging to the W-X5-8-Wamide motif, typical of protostomian MIPs, are indicated in brown. (C) MIP-1 peptides dose-dependently activate SPRR-2. Ca^2+responses of CHO cells expressing SPRR-2 are shown relative (%) to the highest value (100% activation) after normalization to the total Ca^2+ response. […] Error bars show SEM (n ≥ 4).
The C. elegans ortholog SPRR-2 of the insect MIP receptor is an orphan GPCR, meaning that its ligand(s) is unknown. To identify its ligand(s), we used a calcium (Ca^2+)-based reporter assay for GPCR activation wherein SPRR-2 is expressed in Chinese Hamster Ovary (CHO) cells (Fig 2A). We challenged these receptor-expressing cells with a synthetic library of ~350 C. elegans neuropeptides. […] These peptides (NLP-38-1 to 5) all have a C-terminal glycine residue (G) indicative of post-translational modification into an amide (-NH2) group in the mature peptides. In addition, these peptides display the C-terminal sequence W-X5-8-Wamide (Fig 2B), which is typical for MIP neuropeptides in other protostomian species. Because of its relationship to protostomian MIP neuropeptide precursors, we refer to the NLP-38 precursor from here onwards as "MIP-1".
The GPCR activation assay was performed as previously described. Briefly, CHO cells stably expressing the luminescent Ca^2+ indicator aequorin and the promiscuous Gα16 protein (CHO-WTA11 cells, PerkinElmer) were transiently transfected with sprr-2/pcDNA3.1, sprr-1/pcDNA3.1, sprr-3/pcDNA3.1, or empty pcDNA3.1 vector. […] After loading, the transfected cells were added at a density of 25,000 cells/well, and luminescence was measured for 30 s at a wavelength of 469 nm. After 30 s, 0.1% triton X-100 (Merck) was added to lyse the cells, resulting in a maximal Ca^2+ response that was measured for 10 s. […]
All behavioral experiments were performed at least in duplicate on at least two independent days. Total size number is indicated in figure legends by N. Statistical Significance was determined when p < 0.05 as indicated in the figure legends. […]

Values joined by “and” are separate entries in the source; they are usually repeats but may differ in a detail not shown here. Equal entries are not always repeated. Starred links: 1 amine or outer side, 2 acyl side, 3 side chain; linkers in the order of their positions; H or OH if unused. Positions of bridges follow the written chain, without caps; N, C: chain ends. Non-standard residues stand in square brackets, D forms with d. Residues, ends and D or L forms follow the SMILES beside them. Chains are numbered I, II in the order given. No end group written: not given here. Actinocin(9to1) = Cc1c2oc3c(C)ccc(C(=O)[*:1])c3nc-2c(C(=O)[*:2])c(N)c1=O; NMeV = CN[C@H](C(=O)O)C(C)C; Sar = CNCC(=O)O

For the compound `C[C@@H]1C[C@@H]([C@H](O)CC2CC(=O)NC(=O)C2)C(=O)[C@@H](C)C1` [cycloheximide], the “avoidance of high salt concentrations experienced during starvation (salt avoidance learning)” value in the assay with C. elegans [1] is given as “significantly weakened”. Besides, in the assay on C. elegans [2], the CI was 0.19 and 0.26 and 0.65 and 0.48 and 0.38 and 0.54 and 0.7415 and 0.7427; the “learning behavior after conditioning with 100 mM NaCl in the presence of food” value is reported as “does not impair”. By EC50 is commonly meant the concentration at which the effect is half-maximal. As for ASDDRVLGWNKAHGLW-NH2 [MIP-1-4], on SPRR-2, the EC50 amounted to 8.32 nM.

Turning to TPQNWNKLNSLW-NH2 [MIP-1-2], the EC50 on SPRR-2 was found to be 14.2 nM. Same read-out and setting: then SPAQWQRANGLW-NH2 [MIP-1-3], with 16.1 nM; and VLGWNKAHGLW-NH2 [MIP-1-1], with 7.5 nM. Consider `Cc1c2oc3c(C)ccc(C(=O)N[C@@H]4C(=O)N[C@H](C(C)C)C(=O)N5CCC[C@H]5C(=O)N(C)CC(=O)N(C)[C@@H](C(C)C)C(=O)O[C@@H]4C)c3nc-2c(C(=O)N[C@@H]2C(=O)N[C@H](C(C)C)C(=O)N3CCC[C@H]3C(=O)N(C)CC(=O)N(C)[C@@H](C(C)C)C(=O)O[C@@H]2C)c(N)c1=O` [actinomycin D] (I: T[dV]P[Sar][NMeV] / II: T[dV]P[Sar][NMeV]; ester I:1-I:C, II:1-II:C; linker I:N-II:N via Actinocin(9to1)), for which the “avoidance of high salt concentrations experienced during starvation (salt avoidance learning)” value in the assay on C. elegans [1] is given as “significantly weakened”. Besides, in the assay with C. elegans [2], the CI was 0.5595 and 0.6629 and 0.7488 and 0.5052 and 0.5581 and 0.5185; the “learning behavior after conditioning with 100 mM NaCl in the presence of food” value was “does not impair”.
